Data taken from patent US20240400583A1, “TRICYCLIC SULFAMIDES AND SULTAMS” (Merck Sharp & Dohme LLC, priority 2021, published 2024).

Assays:
[1] = molecular target: T1, DCAF15 (Homo sapiens, UniProt Q66K64, DEL276-383); assay: DCAF15 Displacement Assay (displacement of probe PT7795, FRET); format: binding; details: competition with 300 nM PT7795 on DDA1-DDB1ΔB-DCAF15Δpro triplex, 18 hours incubation, FRET 665/615
T1 construct: made in house; host or cells: Sf9 (baculovirus, Bac-to-Bac)
Description: (§1) Proteins used for the assays were as follows: Human DDA1 (UniProt:Q9BW61), DDB1 (UniPro:Q16531), and DCAF15 (UniProt:Q66K64) coding sequences were cloned into pFastBac1 vectors and were co-expressed in Sf9 cells using Bac-to-Bac baculovirus expression system (Thermo Fisher Scientific). The expression construct for DCAF15 includes a N-terminal His6-tag to facilitate the purification. The atrophin-1 homology region of DCAF15 (amino acid residues 276-383) was excised (Apro, originally to facilitate crystallization). Triplex of DDA1-DDB1ΔB-DCAF15Apro, which has the BPB domain (aa 396 to 705) excised and replaced with a GNGNSG linker, was used in all the kinetic measurements because of the higher yield. R^1R^2 of RBM39 (aa 150 to 331; UniProt: Q14498) contained a C-terminal FLAG tag used in the DCAF15/RBM39 complex formation assay. DCAF15 Displacement Assay (Displacement FRET KD)
The previously described procedure was followed (See X. Du, et al., “Structural Basis and Kinetic Pathway of RBM39 Recruitment to DCAF15 by a Sulfonamide Molecular Glue E7820”, Structure, 27, 1625-1633.e3, 2019). Synthesis of the probe PT7795 is described in the article.
Binding of PT7795 to DDA1-DDB1ΔB-DCAF15Apro was measured by the FRET signal between europium-labeled anti-His antibody (AD0205, Perkin Elmer) that is associated with His-tagged DCAF15 and ALX647 moiety in PT7795. The concentration of PT7795 was varied from 2.3 nM to 1000 nM in 16 wells, each containing 25 mM HEPES pH7.5, 100 mM NaCl, 0.1 mg/ml BSA, 0.005% Tween 20, 0.5 mM TCEP, 4% DMSO, 0.5 nM europium-labeled anti-His antibody, and 10 nM triplex of DDA1-DDB1 DB-DCAF15 Apro. After equilibrating for 2-3 hours at 4° C., the plate was removed from the incubator, briefly spun, then read on a Spark 10 (Tecan) at the excitation/emission wavelength of 340 nm/615 nm and 340 nm/665 nm. To obtain Kd, the ratio of 665/615 readings was fitted to Equation 1, where F stands for the ratio of 665/615 […].
Binding of compounds in this disclosure to DCAF15 was measured in a competition by the displacement of PT7795. The concentration of PT7795 was kept at 300 nM while the concentration of a compound was varied from 0.01 to 100 μM. The incubation time was increased to 18 hours for enhanced signal to noise level. To obtain IC50, the ratio of 665/615 readings was fitted to Equation 2, where n is Hill slope.

[2] = molecular target: T2, DCAF15 RBM39 ternary complex (Homo sapiens, UniProt Q14498+Q66K64, DEL276-383); assay: DCAF15 RBM39 Ternary Complex Formation Assay; format: binding; details: apparent EC50 for compound-induced complex formation, 10 nM DCAF15 triplex, 50 nM RBM39 R1R2, FRET 665/615
T2 construct: RBM39 (aa 150 to 331; UniProt: Q14498); TEV cleavage site (pGEX4T3 vector); made in house; host or cells: Sf9 (baculovirus) for the triplex; E. coli for the RBM39 fragment according to b294
Description: as §1
His-tagged DDA1-DDB1ΔB-DCAFISΔpro triplex and RIR2 with a C-terminal FLAG were used in the assay and compound-induced complex formation was monitored through resonance transfer between europium-labeled anti-His antibody and APC-labeled anti-FLAG antibody (AD0059F, Perkin Elmer).

| Compound | IC50 [1] [nM] | EC50 [2] [nM] |
| --- | --- | --- |
| CC(C)(C)OC(=O)N1CCCC(CN2Cc3cc(Cl)c4c(Cl)c(CCCC(N)=O)[nH]c4c3NS2(=O)=O)C1 (stereo not drawn) [Compound 22, tert-butyl 3-((8-(4-amino-4-oxobutyl)-6,7-dichloro-2,2-dioxido-4,9-dihydro-[1,2,6]thiadiazino[4,3-g]indol-3(1H)-yl)methyl)piperidine-1-carboxylate] | 5780 | > 25000 |
| CNC(=O)c1[nH]c2c3c(cc(Cl)c2c1Cl)CN(CCCOC)S(=O)(=O)N3 [Compound 15, 6,7-dichloro-3-(3-methoxypropyl)-N-methyl-1,3,4,9-tetrahydro-[1,2,6]thiadiazino[4,3-g]indole-8-carboxamide 2,2-dioxide] | 1280 | > 25000 |
| COCCCN1Cc2cc(Cl)c3c(Cl)c(CCCC(N)=O)[nH]c3c2NS1(=O)=O [Compound 19, 4-(6,7-dichloro-3-(3-methoxypropyl)-2,2-dioxido-1,3,4,9-tetrahydro-[1,2,6]thiadiazino[4,3-g]indol-8-yl)butanamide] | 824 | > 25000 |
| CNC(=O)c1[nH]c2c3c(cc(Cl)c2c1Cl)CN(CC1CCCNC1)S(=O)(=O)N3 (stereo not drawn) [Compound 10, 6,7-dichloro-N-methyl-3-(piperidin-3-ylmethyl)-1,3,4,9-tetrahydro-[1,2,6]thiadiazino[4,3-g]indole-8-carboxamide 2,2-dioxide] | 2090 | > 25000 |
| CCOC(=O)c1[nH]c2c3c(cc(Cl)c2c1Cl)CN(CCCOC)S(=O)(=O)N3 [Compound 14, ethyl 6,7-dichloro-3-(3-methoxypropyl)-1,3,4,9-tetrahydro-[1,2,6]thiadiazino[4,3-g]indole-8-carboxylate 2,2-dioxide] | 2050 | 2510 |
| COCCCCCOCCCN1Cc2cc(Cl)c3c(Cl)c[nH]c3c2NS1(=O)=O [Compound 3, 6,7-dichloro-3-(3-((5-methoxypentyl)oxy)propyl)-1,3,4,9-tetrahydro-[1,2,6]thiadiazino[4,3-g]indole 2,2-dioxide] | 2500 | 21.4 |
| COCCOCCCN1Cc2cc(Cl)c3c(Cl)c[nH]c3c2NS1(=O)=O [Compound 1, 6,7-dichloro-3-(3-(2-methoxyethoxy)propyl)-1,3,4,9-tetrahydro-[1,2,6]thiadiazino[4,3-g]indole 2,2-dioxide] | 1420 | 12.7 |
| CNC(=O)c1[nH]c2c3c(cc(Cl)c2c1Cl)CN(CC1CCCN(C(=O)OC(C)(C)C)C1)S(=O)(=O)N3 (stereo not drawn) [Compound 11, tert-butyl 3-((6,7-dichloro-8-(methylcarbamoyl)-2,2-dioxido-4,9-dihydro-[1,2,6]thiadiazino[4,3-g]indol-3(1H)-yl)methyl)piperidine-1-carboxylate] | 1440 | > 25000 |
| COCCOCCOCCCN1Cc2cc(Cl)c3c(Cl)c[nH]c3c2NS1(=O)=O [Compound 2, 6,7-dichloro-3-(3-(2-(2-methoxyethoxy)ethoxy)propyl)-1,3,4,9-tetrahydro-[1,2,6]thiadiazino[4,3-g]indole 2,2-dioxide] | 25000 | 247 |
| COCCCN1Cc2cc(Cl)c3c(Cl)c(C(=O)OC)[nH]c3c2NS1(=O)=O [Compound 13, methyl 6,7-dichloro-3-(3-methoxypropyl)-1,3,4,9-tetrahydro-[1,2,6]thiadiazino[4,3-g]indole-8-carboxylate 2,2-dioxide] | 1300 | > 25000 |

Now those with a lower IC50 [1], led by results:

| IC50 [1] [nM] | EC50 [2] [nM] | Compound |
| --- | --- | --- |
| 679 | > 25000 | CNC(=O)c1[nH]c2c3c(cc(Cl)c2c1Cl)CN(CC1CCCN(C(C)=O)C1)S(=O)(=O)N3 (stereo not drawn) [Compound 12, 3-((1-acetylpiperidin-3-yl)methyl)-6,7-dichloro-N-methyl-1,3,4,9-tetrahydro-[1,2,6]thiadiazino[4,3-g]indole-8-carboxamide 2,2-dioxide] |
| 652 | > 25000 | COCCCN1Cc2cc(Cl)c3c(Cl)c(CCCC(=O)O)[nH]c3c2NS1(=O)=O [Compound 18, 4-(6,7-dichloro-3-(3-methoxypropyl)-2,2-dioxido-1,3,4,9-tetrahydro-[1,2,6]thiadiazino[4,3-g]indol-8-yl)butanoic acid] |
| 480 | 10.6 | COCCCCC(=O)N1CCCC(CN2Cc3cc(Cl)c4c(Cl)c[nH]c4c3NS2(=O)=O)C1 (stereo not drawn) [Compound 7, 1-(3-((6,7-dichloro-2,2-dioxido-4,9-dihydro-[1,2,6]thiadiazino[4,3-g]indol-3(1H)-yl)methyl)piperidin-1-yl)-5-methoxypentan-1-one] |
| 317 | > 25000 | COC(=O)CCCc1[nH]c2c3c(cc(Cl)c2c1Cl)CN(Cc1ccnc(O)c1)S(=O)(=O)N3 [Compound 24, methyl 4-(6,7-dichloro-3-((2-hydroxypyridin-4-yl)methyl)-2,2-dioxido-1,3,4,9-tetrahydro-[1,2,6]thiadiazino[4,3-g]indol-8-yl)butanoate] |
| 277 | > 25000 | O=C(O)CCCc1[nH]c2c3c(cc(Cl)c2c1Cl)CN(CC1CCCNC1)S(=O)(=O)N3 (stereo not drawn) [Compound 23, 4-(6,7-dichloro-2,2-dioxido-3-(piperidin-3-ylmethyl)-1,3,4,9-tetrahydro-[1,2,6]thiadiazino[4,3-g]indol-8-yl)butanoic acid] |
| 261 | 4.5 | CC(C)(C)OC(=O)NCCCCC(=O)N1CCC(CN2Cc3cc(Cl)c4c(Cl)c[nH]c4c3NS2(=O)=O)CC1 [Compound 8, tert-butyl (5-(4-((6,7-dichloro-2,2-dioxido-4,9-dihydro-[1,2,6]thiadiazino[4,3-g]indol-3(1H)-yl)methyl)piperidin-1-yl)-5-oxopentyl)carbamate] |
| 244 | 4.9 | NCCCCC(=O)N1CCC(CN2Cc3cc(Cl)c4c(Cl)c[nH]c4c3NS2(=O)=O)CC1 [Compound 9, 5-amino-1-(4-((6,7-dichloro-2,2-dioxido-4,9-dihydro-[1,2,6]thiadiazino[4,3-g]indol-3(1H)-yl)methyl)piperidin-1-yl)pentan-1-one] |
| 200 | 4.3 | COCCOCC(=O)N1CCC(CN2Cc3cc(Cl)c4c(Cl)c[nH]c4c3NS2(=O)=O)CC1 [Compound 4, 1-(4-((6,7-dichloro-2,2-dioxido-4,9-dihydro-[1,2,6]thiadiazino[4,3-g]indol-3(1H)-yl)methyl)piperidin-1-yl)-2-(2-methoxyethoxy)ethan-1-one] |
| 156 | 4.3 | COCCCCC(=O)N1CCC(CN2Cc3cc(Cl)c4c(Cl)c[nH]c4c3NS2(=O)=O)CC1 [Compound 6, 1-(4-((6,7-dichloro-2,2-dioxido-4,9-dihydro-[1,2,6]thiadiazino[4,3-g]indol-3(1H)-yl)methyl)piperidin-1-yl)-5-methoxypentan-1-one] |
| 105 | > 25000 | CC(=O)N1CCCC(CN2Cc3cc(Cl)c4c(Cl)c(CCCC(N)=O)[nH]c4c3NS2(=O)=O)C1 (stereo not drawn) [Compound 20, 4-(3-((1-acetylpiperidin-3-yl)methyl)-6,7-dichloro-2,2-dioxido-1,3,4,9-tetrahydro-[1,2,6]thiadiazino[4,3-g]indol-8-yl)butanamide] |
| 98 | 7.8 | COCCOCC(=O)N1CCCC(CN2Cc3cc(Cl)c4c(Cl)c[nH]c4c3NS2(=O)=O)C1 (stereo not drawn) [Compound 5, 1-(3-((6,7-dichloro-2,2-dioxido-4,9-dihydro-[1,2,6]thiadiazino[4,3-g]indol-3(1H)-yl)methyl)piperidin-1-yl)-2-(2-methoxyethoxy)ethan-1-one] |
